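Step 1: Grow cells in 96-well plates. Step 2: Expose to compound for 48 hours at 5 concentrations. Step 3: Interpolate endpoints linearly; if unreached, use highest concentration. At the GI50, growth is halved. The concentration for full growth arrest is given as TGI.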
Experiments:
Assay in all cases: DTP human tumour cell line panel, 48 h
IGROV1 ovarian = system: IGROV1 ovarian
NCI-H460 lung = system: NCI-H460 lung
ACHN renal = system: ACHN renal
OVCAR-8 ovarian = system: OVCAR-8 ovarian
A549 NSCLC = system: A549 NSCLC
OVCAR-4 ovarian = system: OVCAR-4 ovarian
HOP-92 NSCLC = system: HOP-92 NSCLC
NCI/ADR-RES ovarian = system: NCI/ADR-RES ovarian
OVCAR-3 ovarian = system: OVCAR-3 ovarian
SK-MEL-2 melanoma = system: SK-MEL-2 melanoma

Row | Structure (SMILES) | TGI (IGROV1 ovarian) [µM] | TGI (NCI-H460 lung) [µM] | TGI (ACHN renal) [µM] | TGI (OVCAR-8 ovarian) [µM] | TGI (A549 NSCLC) [µM] | TGI (OVCAR-4 ovarian) [µM] | TGI (HOP-92 NSCLC) [µM] | TGI (NCI/ADR-RES ovarian) [µM] | GI50 (NCI-H460 lung) [µM] | GI50 (ACHN renal) [µM] | GI50 (OVCAR-8 ovarian) [µM] | GI50 (A549 NSCLC) [µM] | GI50 (OVCAR-4 ovarian) [µM] | GI50 (HOP-92 NSCLC) [µM] | GI50 (NCI/ADR-RES ovarian) [µM] | GI50 (OVCAR-3 ovarian) [µM] | TGI (OVCAR-3 ovarian) [µM] | TGI (SK-MEL-2 melanoma) [µM] | GI50 (IGROV1 ovarian) [µM] | GI50 (SK-MEL-2 melanoma) [µM]
1 | O=C(CCl)N1CCN(c2ccccn2)CC1 | 45.7 | 41.2 | 61.2 | 60.8 | > 10 | 31 | 36.3 | 57.7 | – | – | – | – | – | – | – | – | – | – | – | –
2 | N#Cc1c(-c2ccccc2)nc(SCC(O)CN2CCOCC2)nc1N1CCOCC1 (stereo unspecified) | – | > 100 | > 100 | > 100 | > 100 | > 100 | 2.23 | > 100 | 7.03 | 10.8 | 11.4 | 6.43 | 16.3 | 0.442 | 39.5 | 15.4 | > 100 | – | – | –
3 | CC1CN1c1c(C(=O)/C=C/c2ccc(F)cc2)c(-c2ccccc2)nn(C)c1=O (stereo unspecified) | 40.2 | 36.3 | 36.3 | 27.6 | 47.5 | 42.7 | 23.2 | – | – | – | – | – | – | – | – | – | 28.9 | 37.9 | – | –
4 | N#Cc1ncc(-c2ccc(C(F)(F)F)cc2)c(NC2CCCCCC2)n1 | > 100 | > 100 | > 100 | > 100 | > 100 | > 100 | – | > 100 | 11.1 | 24 | 70.8 | 47.4 | 20.1 | – | 18.1 | 14.9 | > 100 | – | 38.8 | –
5 | NC(=S)N/N=C/C(O[C@@H](/C=N/NC(N)=S)CO)n1cnc2c(N)ncnc21 (stereo partly specified) | > 100 | > 100 | > 100 | > 100 | > 100 | > 100 | > 100 | – | – | – | – | – | – | – | – | – | > 94.5 | – | – | –
6 | CCCN(CCCC(NC(C)=O)C(=O)NCc1ccccc1)C(=O)N(C)N=O (stereo unspecified) | > 100 | > 100 | > 100 | > 100 | > 100 | > 100 | > 100 | – | – | – | – | – | – | – | – | – | > 100 | > 100 | – | –
7 | Oc1ccc(I)c2cccnc12 | 39.3 | 20.2 | > 100 | > 100 | > 100 | > 100 | > 100 | – | – | – | – | – | – | – | – | – | > 100 | 71.4 | – | –
8 | O=C1C=C(Nc2cc(Cl)ccc2Cl)c2ccccc2C1=O | > 100 | 88.9 | > 100 | 56.9 | > 100 | > 100 | 69.7 | – | – | – | – | – | – | – | – | – | 63.7 | 33.9 | – | –
9 | COc1cccc(N2C(=N)/C(=C3\Nc4ccccc4S3)CC2=O)c1 | > 100 | 26.3 | > 100 | > 100 | > 100 | 71.9 | – | > 100 | 2.89 | 4.93 | 7.9 | 5.49 | 12.1 | – | 15.8 | 14.8 | > 100 | > 100 | 7.58 | 48.4
10 | COC12OCCN(C)C1=CC(=O)C1N=NCC12 (stereo unspecified) | > 100 | > 100 | – | > 100 | > 100 | – | > 100 | – | – | – | – | – | – | – | – | – | > 100 | – | – | –
11 | O=C(CC(O)(C(F)(F)F)C(F)(F)F)c1cccs1 | > 10 | – | > 10 | > 10 | > 10 | > 10 | > 10 | > 10 | – | – | – | – | – | – | – | – | > 10 | – | – | –
12 | CC(=O)c1ccc(NC(=O)C(=O)CC(=O)c2sc(-n3nc(-c4ccccc4)cc3-c3ccccc3)nc2C)cc1 | > 100 | > 100 | > 100 | > 100 | > 100 | > 100 | – | – | – | – | – | – | – | – | – | – | > 100 | > 100 | – | –
13 | CCOC(=O)C1(C)C2=CC=C(O2)C(C)(C)C2=CC=C(O2)C(C)(C)C2=CC=C(O2)C(C)(C)C2=CC=C1O2 | > 100 | > 100 | > 100 | > 100 | > 100 | > 100 | > 100 | – | – | – | – | – | – | – | – | – | – | > 100 | – | –
14 | COc1ccc(N=Nc2c(-c3ccccc3)nn(C(=O)CC(=O)Nc3ccc(OC)cc3)c2-c2ccccc2)cc1 | > 100 | > 100 | > 100 | > 100 | > 100 | > 100 | 50 | – | – | – | – | – | – | – | – | – | > 100 | > 100 | – | –
15 | COC(=O)C1=C(C)N(NC(N)=O)C2(N)N(NC(N)=O)C(C)=C(C(=O)OC)C12C#N (stereo unspecified) | > 100 | > 100 | > 100 | > 100 | > 100 | > 100 | > 100 | – | – | – | – | – | – | – | – | – | > 100 | > 100 | – | –
16 | CS(=O)(=O)ON1C(=O)c2ccc(N)cc2C1=O | > 100 | > 100 | > 100 | 60.8 | > 100 | > 100 | > 100 | – | – | – | – | – | – | – | – | – | > 100 | > 100 | – | –
17 | O=c1[nH]c(-c2ccccc2)nc2cc([N+](=O)[O-])c(/C(Cl)=C/c3ccccc3)cc12 | > 100 | – | > 100 | 45.4 | > 100 | 49.5 | 35.6 | – | – | – | – | – | – | – | – | – | > 100 | 71.8 | – | –
18 | N#CC(Cl)CS(=O)(=O)c1ccccc1 (stereo unspecified) | 38 | 38.8 | 9.96 | 11.1 | 41.7 | 4.24 | 4.1 | – | – | – | – | – | – | – | – | – | 7.17 | 33 | – | –
19 | Cc1cc(NS(=O)(=O)c2ccc(NC(=O)c3cccc4c(Nc5ccc(S(=O)(=O)Nc6cc(C)on6)cc5)c5ccc(Cl)cc5nc34)cc2)no1 | > 100 | > 100 | > 100 | > 100 | > 100 | > 100 | 80.5 | – | – | – | – | – | – | – | – | – | > 100 | > 100 | – | –
20 | O=C1CC[C@@H](S(=O)(=O)c2ccccc2)[C@H](/C=C/c2ccccc2)O1 | > 100 | > 100 | > 100 | > 100 | > 100 | > 100 | – | – | – | – | – | – | – | – | – | – | > 100 | – | – | –
21 | COc1c(CC(C)=O)c2ccccc2n1C(C)=O | > 100 | > 100 | > 100 | > 100 | > 100 | > 100 | > 100 | – | – | – | – | – | – | – | – | – | > 100 | > 100 | – | –
